Earlier results in US20100113603A1, “COMBINATION THERAPIES FOR THE TREATMENT OF OBESITY” (priority 2008, published 2010).

Conditions: literature studies of each medication
For CCN[C@@H](C)Cc1cccc(C(F)(F)F)c1 [dexfenfluramine], the “weight loss of body weight for drug compared with placebo” value (from here on “weight loss … compared with placebo”) is listed as “about 5%”.
In the case of CCCCCCCCCCC[C@@H](C[C@@H]1OC(=O)[C@H]1CCCCCC)OC(=O)[C@H](CC(C)C)NC=O [orlistat], the “weight loss … compared with placebo” value is given as “about 5%”.
In the case of CC(C)(N)Cc1ccccc1 [phentermine], the “weight loss … compared with placebo” value is given as “about 5%”.
For CC(C)CC(N(C)C)C1(c2ccc(Cl)cc2)CCC1 (stereo not shown) [sibutramine], the “weight loss … compared with placebo” value is given as “about 5%”.
